This is an account of results in patent US11534449B2, “Tricin derivatives and compositions thereof for cancer treatment” (NEOCAGE SL, priority 2019, dated 2022).

Structures are written as SMILES. “Also recorded” adds a separate entry of the source.

The test system of series [1] is dendritic cell. The experiment in a line: Dendritic cell activation. The series is classed as cell-based. From the text:
(§1) In colorectal carcinoma (CRC) patients, distant metastatic disease is present at initial diagnosis in nearly 25% of patients. The majority of patients with metastatic CRC have an incurable disease; therefore, new therapies are needed to address this cancer. […] ANTARTINA® is an antitumor agent isolated from Deschampsia antarctica Desv. In that study, the aim was to evaluate the antitumor properties of ANTARTINA® in CRC models. Human and murine CRC cell lines were employed to investigate proliferation, apoptosis, and cell cycle effects of ANTARTINA® therapy in vitro. Immune response of ANTARTINA® against cancer cells in the CRC model was also investigated using a cytotoxic T lymphocyte (CTL) assay, analyzing dendritic cell activation and intratumor T cell sub-population, and by tumor re-challenge experiments.

In series [2] the test system is human CRC cell. The experiment in a line: In vitro human CRC cell proliferation. Type of series: cell-based.
Excerpt: as §1

Series [3] concerns CT26 cells. The experiment in a line: Murine CRC model (CT26 cells) in BALB/c mice, combination with AdIL-12 gene therapy. Type of series: in vivo, mouse. As to conditions: mice with regression/mice in group; ANTARTINA 50 mg/kg 3 doses per week; AdIL12 10^9 TCID50 intratumorally, one dose at day 15. From the text:
Mouse CT26 cells (5×10^5) were subcutaneously inoculated on day 0. On day 7, when tumors reached a diameter of 5-7 mm, animals were divided into 4 groups: saline, ANTARTINA®, AdIL12, and the combination of ANTARTINA® and AdIL-12. Tumor volume is shown in the left panel vs. days after CT26 inoculation. Excised tumors are depicted in the right panel.
Adenovirus IL-12 constructs are as previously reported. (Mazzolini et al., Cancer Gene Therapy, 6(6):514-522, 1999).
This is a murine model of CRC (CT26 cells) established in BALB/c mice. Mouse CT26 cells (5×10^5) were subcutaneously inoculated on day 0. On day 7, when tumors reached a diameter of 5-7 mm, animals were divided into 4 groups: saline, ANTARTINA® 50 mg/kg, 3 doses per week (systemically), AdIL12 (adenovirus encoding murine IL-12, dose: 10^9 TCID50, intratumorally, one dose at day 15 after tumor inoculation), and the combination of ANTARTINA® and AdIL-12. Tumor volume was measured with a caliper 3 times per week. […] Complete tumor regressions: saline […], AdIL-12 1/5, Antartina 2/5, and combined therapy: 4/5. (FIG. 6).

Series [4] deals with CRC. The experiment in a line: Cytotoxic T lymphocyte (CTL) assay. Type of series: cell-based.
Excerpt: as §1

Series [5] has as its system CRC. The experiment in a line: Immunocompetent CRC mouse model. Type of series: in vivo.
Excerpt: as §1

In series [6] the test system is CT26 cells. The experiment in a line: Subcutaneous CRC model, CT26 cells in BALB/c mice. Type of series: in vivo, mouse. As to conditions: 50 mg/kg i.p., 3 times per week over 3 weeks; s.c. CT26 tumors in BALB/c mice; compared with ANTARTINA and tricin. The source says: FIG. 4 depicts cell size (mm^3) in mice of CT26 tumors after CT26 cell line injection into mice. […] The bottom panel provides a summary of all results in one graph.
Mouse CT26 tumor cell line, an undifferentiated murine colorectal carcinoma (CRC) cell line established from N-nitroso-N-methylurethan-induced transplantable tumor in BALB/c (H-2d) mice, BNL cells (an hepatoma cell line) were used in the studies below and can be obtained from the University of Navarra, Spain. Human cell lines were from American Type Culture Collection (ATCC, Manassas, Va., US), including LoVo (ATCC-CCL229), ASG (ATCC-CCRL-79) and lung fibroblast Wi38 (ATCC-CCL75). All lines were tested for mycoplasma and cultured in complete DMEM (GIBCO, Themo Fisher Scientific, mM glutamine, 100 U/mL penicillin, […] streptomycin, and 10% heat inactivated fetal bovine serum (FBS, GIBCO, Thermo Fisher Scientific) and incubated 37° C. in 5% CO2.
Subcutaneous CRC model: Six-to-eight-week-old male BALB/c mice were used. CT26 cells were injected at a dose of 5×10^5 cells subcutaneously (s.c.) into the right flank of BALB/c mice (day 0). Tumors were allowed to reach ^˜90 mm^3 in size before treatment. […] Tumor growth was assessed by caliper measurement. Tumor volume was calculated using the following formula: tumor volume (mm^3)=length×(width) 2/2.

In series [7] the test system is Hepa129 cells. The experiment in a line: Orthotopic hepatocellular carcinoma model associated with fibrosis, Hepa129 cells in C3H/He mice. The series is classed as in vivo, mouse. The settings on record: 50 mg/kg, 3 times per week from day 5; quantified fifteen days after tumor implantation; vs saline. The protocol:
On day 28, mice were anesthetized and orthotopic tumors were established by sub-capsular inoculation of 1.25×10^5 Hepa129 cells into the left liver lobe by laparotomy (day 0). Five days after tumor implantation, mice were distributed in groups (n=6-8/group) and received: i) saline (control, FIG. 5A, left panel); ii) acetylated ANTARTINA® (50 mg/kg, 3 times per week, FIG. 5A, right panel). Fifteen days after tumor implantation, mice were sacrificed and tumor volume was quantified, as depicted in FIG. 5B (control, left panel; acetylated ANTARTINA®, right panel).
Experimental model of HCC associated with fibrosis: C3H/He mice were treated intraperitoneally (i.p) with 200 mg/kg of thioacetamide (TAA) (Sigma-Aldrich, St. Louis, USA) 3 times a week for 4 weeks. On day 28, mice were anesthetized and orthotopic tumors were established by sub-capsular inoculation of 1.25×10^5 Hepa129 cells into the left liver lobe by laparotomy (day 0). Five days after tumor implantation, mice were distributed in groups (n=6-8/group) and received: i) saline (control); ii) acetylated ANTARTINA® (50 mg/kg, 3 times per week). (See, FIG. 5A). Fifteen days after tumor implantation, mice were sacrificed and tumor volume was quantified. (See, FIG. 5B).

As usually defined, the melting point is the temperature of the solid-liquid transition. The compound `COc1cc(-c2cc(=O)c3c(O)cc(O[C@@H]4O[C@H](CO)[C@@H](O[C@@H]5O[C@H](CO)[C@@H](O)[C@H](O)[C@H]5O)[C@H](O)[C@H]4O)cc3o2)cc(OC)c1O` (stereo in doubt) registered a melting point of 243.2 to 246.5 °C.

As for `COc1cc(-c2cc(=O)c3c(O)cc(O[C@@H]4O[C@H](CO)[C@@H](O)[C@H](O)[C@H]4O)cc3o2)cc(OC)c1O` [ANTARTINA®, tricin 7-O-β-D-glucopyranoside], the dendritic cell activation entry in series [1] was “stimulated dendritic cell activation”. In series [2], the “in vitro human CRC cell proliferation” value is on record as “inhibits”. Also, the complete tumor regressions in series [3] is listed as 2/5. The “specific cytotoxic T cell response against CRC” value in series [4] is “induced a potent specific cytotoxic T cell response”. Besides, the toxic effects result in series [5] (at the doses employed) is “No toxic effects were observed”. Further, in series [5] (mouse, in vivo), the animal survival rate entry is “increased”; the complete tumor regressions is > 30 % of mice; the “tumor growth and liver metastases” value is reported as “potently inhibited”; the tumor immunogenicity entry is “increased tumor immunogenicity”. The “antitumor immunity (tumor re-challenge)” value in series [5] (tumor re-challenge experiments) is “long lasting antitumor immunity”.

`COc1cc(-c2cc(=O)c3c(OC(C)=O)cc(O[C@@H]4O[C@H](COC(C)=O)[C@@H](OC(C)=O)[C@H](OC(C)=O)[C@H]4OC(C)=O)cc3o2)cc(OC)c1OC(C)=O` [acetylated ANTARTINA®, Tricin 7-O-β-D-glucopyranoside, Per Acetylated]: the melting point lay within 239.1 to 241.8 °C. For the same compound, in series [6], the “tumor size (antitumoral effect)” value is “superior antitumoral effect in comparison with native ANTARTINA®; also recorded: clearly and markedly reduced tumor size at a higher rate than observed for any of the other tested agents”. Moreover, the tumor volume entry in series [7] was “markedly reduced the tumor volume”.

Turning to `COc1cc(-c2cc(=O)c3c(O)cc(O[C@@H]4O[C@H](CO)[C@H](O)[C@H](O)[C@H]4O)cc3o2)cc(OC)c1O` (stereo in doubt), the melting point was in the range of 260.2 to 263.3 °C.

Consider `COc1cc(-c2cc(=O)c3c(O)cc(O[C@@H]4O[C@H](CO)[C@@H](O[C@@H]5O[C@H](CO)[C@H](O)[C@H](O)[C@H]5O)[C@H](O)[C@H]4O)cc3o2)cc(OC)c1O` (stereo in doubt), for which the melting point is 275.4 to 279.2 °C.

As to `COc1cc(-c2cc(=O)c3c(O)cc(O[C@@H]4O[C@H](COC(C)=O)[C@H](OC(C)=O)[C@H](OC(C)=O)[C@H]4OC(C)=O)cc3o2)cc(OC)c1O` (stereo in doubt), the melting point is 117.2 to 121.8 °C.
